This is an account of results in patent publication US12440457B2, “Methods of treating suicidality” (Seelos Therapeutics, Inc., priority 2020, dated 2025).

The conditions of series [1]: Leung and Baillie 1986; cited from earlier work.
In series [2] the test system is adults with major depressive disorder at imminent risk of suicide. Description: Phase 2 study, S-STS CMCM total score. Format: in vivo, human. The source says: The S-STS CMCM (version 01/01/19) is a clinician-rated outcome measure which assesses SIB on a standard 22-item scale, as well as multiple patient and clinician-rated items. The first 16 items are rated on a Likert-type scale ranging from “not at all” (0) to “extremely” (4), where select scoring (i.e., 4 specific items are scored based on the highest score on 2 of those items) yields a total score ranging from 0 to 52. The final 6 items are used only when the patient misses a visit and is unable to complete the scale; if that missed visit is due to attempted or completed suicide, the possible maximum score is 100. The CMCM also yields 5 different single-item global assessments: 1) subject-rated likelihood of a suicide attempt; 2) subject-rated treatment needed; 3) clinician global severity of suicidal impulses, thoughts, and behaviors; 4) clinician judgment of suicide risk at this time and level of management needed for suicidality; and 5) clinician judgment of subject's likelihood of making a suicide attempt or of dying by suicide in the next 7 days. […]

Series [3] shares this test system. Description: Phase 2 study, S-STS CMCM Risk of Suicide at Within the Next 7 Days. Format: in vivo, human. From the text: FIGS. 21A-21B are a table (FIG. 21A) and a graph (FIG. 21B) describing the STS CMCM (“risk of suicide at within the next 7 day”) scores for Subject 1 and Subject 2 from Day 1 to Day 9 described in Example 3 of the study.
(§1) The S-STS CMCM (version 01/01/19) is a clinician-rated outcome measure which assesses SIB on a standard 22-item scale, as well as multiple patient and clinician-rated items. The first 16 items are rated on a Likert-type scale ranging from “not at all” (0) to “extremely” (4), where select scoring (i.e., 4 specific items are scored based on the highest score on 2 of those items) yields a total score ranging from 0 to 52. The final 6 items are used only when the patient misses a visit and is unable to complete the scale; if that missed visit is due to attempted or completed suicide, the possible maximum score is 100. The CMCM also yields 5 different single-item global assessments: 1) subject-rated likelihood of a suicide attempt; 2) subject-rated treatment needed; 3) clinician global severity of suicidal impulses, thoughts, and behaviors; 4) clinician judgment of suicide risk at this time and level of management needed for suicidality; and 5) clinician judgment of subject's likelihood of making a suicide attempt or of dying by suicide in the next 7 days.
(§2) The secondary endpoints will be the change from baseline at 24 hours, as well as at Day 16, in the following: • (1) S-STS total score • (2) MADRS total score at Day 16 (only) • (3) Clinical Global Impression (CGI) of Severity for SI/B (CGIS-SI/B) and Change in SI/B (CGIC-SI/B) • (4) Patient Global Impression (PGI) of Severity for SI/B (PGIS-SI/B) and Change in SI/B (PGIC-SI/B • (5) S-STS Clinician-Rated Global Severity of Suicidal Impulses, Thoughts, and Behaviors • (6) S-STS Clinician judgment of subject's risk of a suicide attempt or death by suicide at this time • (7) S-STS Clinician judgment of subject's likelihood (risk) of making a suicide attempt or of dying by suicide in the next 7 days • (8) S-STS Subject-rated global severity of suicidal impulses, thoughts, and behavior • (9) S-STS Subject-rated treatment needed score • (10) MADRS item 10 response rate (response ≤3) • (11) MADRS response (total score ≥50% reduction from baseline) • (12) MADRS remission (total score ≤12) Exploratory Endpoint:
(§3) This study is currently underway.

The conditions of series [4]: Pham et al. 2018; cited from earlier work.
For series [5], the system named is adults with major depressive disorder at imminent risk of suicide. In words: Phase 2 study, MADRS total score. Format: in vivo, human. From the text:
The Montgomery-Asberg Depression Rating Scale (MADRS) is a diagnostic questionnaire that can be used to measure the severity of a depressive episode in a subject. In some embodiments, the MADRS can be used to measure suicidal ideation. For example, the MADRS includes 10 items directed to the following: 1) apparent sadness (e.g., representing despondency, gloom and despair that is more than just ordinary transient low spirits that is reflected in speech, facial expression, and posture); 2) reported sadness (e.g., representing reports of depressed mood, regardless of whether it is reflected in appearance or not and can include low spirits, despondency or the feeling of being beyond help and without hope); 3) inner tension (e.g., representing feelings of ill-defined discomfort, edginess, inner turmoil, mental tension mounting to either panic, dread or anguish); 4) reduced sleep (e.g., representing the experience of reduced duration or depth of sleep compared to the subject's own normal pattern when well); 5) reduced appetite (e.g., representing the feeling of a loss of appetite compared with when-well); 6) concentration difficulties (e.g., representing difficulties in collecting one's thoughts mounting to an incapacitating lack of concentration); 7) lassitude (e.g., representing difficulty in getting started or slowness in initiating and performing everyday activities); 8) inability to feel (e.g., representing the subjective experience of reduced interest in the surroundings, or activities that normally give pleasure, and the ability to react with adequate emotion to circumstances or people is reduced); 9) pessimistic thoughts (e.g., representing thoughts of guilt, inferiority, self-reproach, sinfulness, remorse and ruin); and 10) suicidal thoughts (e.g., representing the feeling that life is not worth living, that a natural death would be welcome, suicidal thoughts, and preparations for suicide). Each item is rated from 0 to 6, with 0 reflecting that the subject is not at all as described by the item and 6 reflecting that the subject is extremely like what is described by the item. […] As another example, for suicidal thoughts, a score of 0 can indicate that the subject enjoys life or takes it as it comes; a score of 2 can indicate that the subject is weary of life and may have fleeting suicidal thoughts; a score of 4 can indicate that the subject feels he or she would probably be better off dead (e.g., suicidal thoughts are common, and suicide is considered as a possible solution, but without specific plans or intention); and a score of 6 can indicate that the subject has explicit plans for suicide when there is an opportunity (e.g., the subject has made active preparations for suicide). […]

The test system is the same in series [6]. In words: Phase 2 study, MADRS item 10 (suicidality). Format: in vivo, human. Particulars: baseline 5. From the text:
The Montgomery-Asberg Depression Rating Scale (MADRS) is a diagnostic questionnaire that can be used to measure the severity of a depressive episode in a subject. In some embodiments, the MADRS can be used to measure suicidal ideation. […]

For series [7] the test system is unchanged. Description: Phase 2 study, S-STS CMCM risk of suicide at this time. The series is classed as in vivo, human.
Description: FIGS. 20A-20B are a table (FIG. 20A) and a graph (FIG. 20B) describing the STS CMCM (“risk of suicide at this time”) scores for Subject 1 and Subject 2 from Day 1 to Day 9 described in Example 3 of the study.
as §1, §2, §3

The test system is the same in series [8]. Description: Phase 2 study, overall preliminary outcome. The series is classed as in vivo, human. Particulars: two subjects, first eight days.
Description: as §3

Series [9] has the same test system. In words: Phase 2 study, CADSS dissociation.
[10] abbreviates: Subject 2, 24 hours post-administration, baseline 7.

Take `CNC1(c2ccccc2Cl)CCCCC1=O` (racemic) [intranasal racemic ketamine, racemic ketamine]: in [1], the “movement during the anesthetic recovery phase” value was “increased movement”. Also, the “S-STS CMCM score (range 0-52)” value is “zero” in [2] (Subject 1, 24 hours post-administration, baseline 18) and 3 in series [2] (Subject 2, 24 hours post-administration, baseline 22). Further, the “S-STS CMCM Risk of Suicide at Within the Next 7 Days score (range 1-10)” value in [3] (Subject 1, 24 hours post-administration, baseline 5) is 2; in [3] (setting [10]) it was 1; in series [3] (the scores, Day 4) it was 1; in [3] (the scores, Day 8) it was 0. Moreover, in [4], the antidepressant properties entry is “exhibit antidepressant properties”. Moreover, the MADRS total score in [5] (Subject 1, 24 hours post-administration, 90 mg IN plus SOC, baseline 35) was 8; in series [5] (Subject 2, 24 hours post-administration, 90 mg IN plus SOC, baseline 38) it was 15; in [5] (Subject 2, Day 8, after second dose on Day 4) it was 16. Further, the “reduction of MADRS total score” value in series [5] (both subjects, 24 hours post-administration) is more than 50%. Also, the “MADRS item 10 (suicidality) score (range 0-6)” value is 0 in series [6] (Subject 1, 24 hours post-administration) and 0 in series [6] (second subject (not given), 24 hours post-administration). Moreover, the “S-STS CMCM score (range 0-9), risk of suicide at this time” value in series [7] (Subject 1, 24 hours post-administration, baseline 7) is recorded as 3; in series [7] (Subject 1, Day 9), 2; in series [7] (setting [10]), 3; in series [7] (Subject 2, Day 9), “zero”; in [7] (both subjects, Day 8) it was 2. Further, the “improvements in depression and suicidality, preliminary data” value in [8] was “rapid, significant, and sustained improvements in depression and suicidality”. For the same molecule, the “sedation or dissociation, preliminary data” value in series [8] is “no meaningful sedation or dissociation”. Besides, the “CADSS score (dissociation)” value is “zero” in series [9] (Subject 1, all time points, clinical threshold score ≥4); 2 in series [9] (Subject 2, 40 minutes post-administration, clinical threshold score ≥4); “zero” in series [9] (Subject 2, 1 hour post-administration).

As for `NC1(c2ccccc2Cl)CCCC(O)C1=O` (centres unmarked) [6-hydroxynorketamine], the antidepressant properties entry in series [4] is on record as “exhibit antidepressant properties”.

With `NC1(c2ccccc2Cl)CCCCC1=O` (centres unmarked) [norketamine], the “movement during the anesthetic recovery phase” value in series [1] was “increased movement”.
